Converted amounts (≈) assume the structure as drawn.
What was measured:
[1] = system: Pseudomonas aeruginosa; assay: In vitro antibacterial activity against Pseudomonas aeruginosa 69 was determined; type: functional
[2] = system: Pseudomonas aeruginosa; assay: In vitro antibacterial activity against Pseudomonas aeruginosa ATCC 10145 bacteria was determined; type: functional
[3] = system: Pseudomonas aeruginosa; assay: In vitro antibacterial activity against IPM resistant Pseudomonas aeruginosa 69 was determined; type: functional
[4] = system: Pseudomonas aeruginosa; assay: In vitro antibacterial activity against Pseudomonas aeruginosa 56 was determined; type: functional
[5] = system: Pseudomonas aeruginosa; assay: Antibacterial activity against clinically isolated Pseudomonas aeruginosa 67
[6] = species on record: Mus musculus; assay: Protective effect on systemic infection in mice caused by clinically isolated Pseudomonas aeruginosa 67; type: functional
[7] = system: Klebsiella pneumoniae; assay: In vitro antibacterial activity against Klebsiella pneumoniae NCTC-9632 bacteria was determined; type: functional
[8] = system: Escherichia coli; assay: In vitro antibacterial activity against Escherichia coli NIH JC-2 bacteria was determined; type: functional
[9] = system: Pseudomonas aeruginosa; assay: In vitro antibacterial activity against AZT resistant Pseudomonas aeruginosa 59 was determined; type: functional
[10] = system: Pseudomonas aeruginosa; assay: In vitro antibacterial activity against IPM resistant Pseudomonas aeruginosa 56 was determined; type: functional
[11] = system: Pseudomonas aeruginosa; assay: In vitro antibacterial activity against IPM resistant Pseudomonas aeruginosa 59 was determined; type: functional
[12] = system: Pseudomonas aeruginosa; assay: In vitro antibacterial activity against IPM resistant Pseudomonas aeruginosa 47 was determined; type: functional
[13] = system: Pseudomonas aeruginosa; assay: In vitro antibacterial activity against Pseudomonas aeruginosa 59 was determined; type: functional
[14] = system: Pseudomonas aeruginosa; assay: In vitro antibacterial activity against AZT resistant Pseudomonas aeruginosa 56 was determined; type: functional
[15] = system: Pseudomonas aeruginosa; assay: In vitro antibacterial activity against CAZ resistant Pseudomonas aeruginosa 47 was determined; type: functional
[16] = system: Pseudomonas aeruginosa; assay: In vitro antibacterial activity against AZT resistant Pseudomonas aeruginosa 69 was determined; type: functional
[17] = system: Pseudomonas aeruginosa; assay: In vitro antibacterial activity against Pseudomonas aeruginosa 47 was determined; type: functional
[18] = system: Pseudomonas aeruginosa; assay: In vitro antibacterial activity against Pseudomonas aeruginosa NCTC-10490 bacteria was determined; type: functional
[19] = system: Pseudomonas aeruginosa; assay: In vitro antibacterial activity against CAZ resistant Pseudomonas aeruginosa 59 was determined; type: functional
[20] = system: Pseudomonas aeruginosa; assay: In vitro antibacterial activity against AZT resistant Pseudomonas aeruginosa 47 was determined; type: functional
[21] = system: Pseudomonas aeruginosa; assay: In vitro antibacterial activity against CAZ resistant Pseudomonas aeruginosa 56 was determined; type: functional
[22] = system: Pseudomonas aeruginosa; assay: In vitro antibacterial activity against CAZ resistant Pseudomonas aeruginosa 69 was determined; type: functional
[23] = species on record: Mus musculus; assay: (§1) Protective effect on systemic infection in mice caused by clinically isolated Pseudomonas aeruginosa 58; type: functional
[24] = system: Pseudomonas aeruginosa; assay: as §1; type: functional

Which results are given for `Cc1nc(SCC2=C(C(=O)O)N3C(=O)[C@@H](NC(=O)/C(=N\OCc4cc(=O)c(O)cn4O)c4csc(N)n4)[C@H]3CS2)sc1CC(=O)O`?
MIC [1]: 3.13 µg/mL (≈ 4.41 µM); MIC [2]: 0.05 µg/mL (≈ 0.0704 µM); MIC [3]: 50 µg/mL (≈ 70.4 µM); MIC [4]: 1.56 µg/mL (≈ 2.2 µM); MIC [5]: 0.1 µg/mL (≈ 0.141 µM); ED50 [6]: 21.8 mg/kg; MIC [7]: 0.05 µg/mL (≈ 0.0704 µM); MIC [8]: 0.1 µg/mL (≈ 0.141 µM); MIC [9]: 25 µg/mL (≈ 35.2 µM); MIC [10]: 25 µg/mL (≈ 35.2 µM); MIC [11]: 50 µg/mL (≈ 70.4 µM); MIC [12]: 25 µg/mL (≈ 35.2 µM); MIC [13]: 1.56 µg/mL (≈ 2.2 µM); MIC [14]: 50 µg/mL (≈ 70.4 µM); MIC [15]: 50 µg/mL (≈ 70.4 µM); MIC [16]: 25 µg/mL (≈ 35.2 µM); MIC [17]: 1.56 µg/mL (≈ 2.2 µM); MIC [18]: ≤ 0.025 µg/mL; MIC [19]: 50 µg/mL (≈ 70.4 µM); MIC [20]: 25 µg/mL (≈ 35.2 µM); MIC [21]: 12.5 µg/mL (≈ 17.6 µM); MIC [22]: 50 µg/mL (≈ 70.4 µM); ED50 [23]: 3.2 mg/kg; MIC [24]: 0.05 µg/mL (≈ 0.0704 µM)

With `Nc1nc(/C(=N/OCc2cc(=O)c(O)cn2O)C(=O)N[C@@H]2C(=O)N3C(C(=O)O)=C(CSc4nncs4)SC[C@H]23)cs1` (stereo in doubt) as the molecule, how does the MIC [2] read?
Its MIC is 0.1 µg/mL (≈ 0.157 µM).

What about the MIC [7] of the same molecule?
The MIC was no more than 0.025 µg/mL.

What about the MIC [8] of the same molecule?
Its MIC is 0.2 µg/mL (≈ 0.313 µM).

What about the MIC [18] of the same molecule?
The MIC was no more than 0.025 µg/mL.

How did the MIC [2] turn out when `Nc1nc(/C(=N/OCc2cc(=O)c(O)cn2O)C(=O)N[C@@H]2C(=O)N3C(C(=O)O)=C(CSc4nnnn4CC(=O)O)SC[C@H]23)cs1` (stereo in doubt) was run?
The MIC was no more than 0.025 µg/mL.

What about the MIC [7] of the same molecule?
The MIC was no more than 0.025 µg/mL.

And the MIC [8]?
The MIC was 0.05 µg/mL (≈ 0.0735 µM).

What about the MIC [18] of the same molecule?
The MIC was no more than 0.025 µg/mL.

With `Nc1nc(/C(=N/OCc2cc(=O)c(O)cn2O)C(=O)N[C@@H]2C(=O)N3C(C(=O)O)=C(CSc4cnns4)SC[C@H]23)cs1` (stereo in doubt) as the molecule, how does the MIC [2] read?
Its MIC is 0.39 µg/mL (≈ 0.611 µM).

And the MIC [7]?
Its MIC is 0.1 µg/mL (≈ 0.157 µM).

What about the MIC [8] of the same molecule?
The MIC was 0.2 µg/mL (≈ 0.313 µM).

And the MIC [18]?
The MIC was no more than 0.025 µg/mL.

For `CC(C)(O/N=C(\C(=O)N[C@@H]1C(=O)N2C(C(=O)[O-])=C(C[n+]3ccccc3)CS[C@H]12)c1csc(N)n1)C(=O)O` [CEFTAZIDIME], which MIC [2] is on record?
The MIC was 1.56 µg/mL (≈ 2.85 µM).

And the MIC [5]?
The MIC was 1.56 µg/mL (≈ 2.85 µM).

And the ED50 [6]?
The ED50 was greater than 100 mg/kg.

What about the MIC [7] of the same molecule?
The MIC was 0.05 µg/mL (≈ 0.0915 µM).

And the MIC [8]?
The MIC was 0.39 µg/mL (≈ 0.714 µM).

And the MIC [18]?
Its MIC is 1.56 µg/mL (≈ 2.85 µM).

And the ED50 [23]?
Its ED50 is 31.7 mg/kg.

What about the MIC [23] of the same molecule?
The MIC was 3.13 µg/mL (≈ 5.73 µM).
